Each compound was assayed against T1, human RXFP1 (Homo sapiens, UniProt Q9HBX9) (assay: hRXFP1 HEK293 cAMP assay (HTRF)). Details: HEK293 cells stably expressing human RXFP1; 30 min at rt; intracellular cAMP by HTRF.
T1 construct: expressed in transfected cells
T1 sequence (Q9HBX9 1-757): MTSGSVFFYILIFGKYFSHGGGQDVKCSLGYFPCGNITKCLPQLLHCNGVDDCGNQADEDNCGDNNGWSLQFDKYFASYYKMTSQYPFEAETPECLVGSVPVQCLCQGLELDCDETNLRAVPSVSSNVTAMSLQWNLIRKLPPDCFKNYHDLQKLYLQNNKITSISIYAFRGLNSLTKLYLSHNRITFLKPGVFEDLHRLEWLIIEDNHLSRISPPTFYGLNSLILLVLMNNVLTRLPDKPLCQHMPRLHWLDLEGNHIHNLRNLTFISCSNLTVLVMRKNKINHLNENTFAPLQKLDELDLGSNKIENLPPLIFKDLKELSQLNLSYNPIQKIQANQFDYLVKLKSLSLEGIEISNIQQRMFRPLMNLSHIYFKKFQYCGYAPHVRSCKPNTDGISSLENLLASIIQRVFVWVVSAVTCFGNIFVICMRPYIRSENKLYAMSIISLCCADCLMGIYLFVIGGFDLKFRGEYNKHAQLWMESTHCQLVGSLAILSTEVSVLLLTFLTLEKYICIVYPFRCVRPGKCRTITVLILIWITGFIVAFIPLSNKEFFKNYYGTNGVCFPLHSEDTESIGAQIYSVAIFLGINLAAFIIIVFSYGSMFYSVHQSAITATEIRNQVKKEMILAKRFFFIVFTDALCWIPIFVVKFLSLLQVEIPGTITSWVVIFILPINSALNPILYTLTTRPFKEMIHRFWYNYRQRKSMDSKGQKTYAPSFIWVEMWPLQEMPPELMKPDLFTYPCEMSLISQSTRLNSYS
Format: cell-based
Method: RXFP1 Cyclic Adenosine Monophosphate (cAMP) Assays. Human embryonic kidney cells 293 (HEK293) cells and HEK293 cells stably expressing human RXFP1, were cultured in MEM medium supplemented with 10% qualified FBS, and 300 μg/ml hygromycin (Life Technologies). Cells were dissociated and suspended in assay buffer. The assay buffer was HBSS buffer (with calcium and magnesium) containing 20 mM HEPES, 0.05% BSA, and 0.5 mM IBMX. Cells (3000 cells per well, except 1500 cell per well for HEK293 cells stably expressing human RXFP1) were added to 384-well Proxiplates (Perkin-Elmer). Cells were immediately treated with test compounds in DMSO (2% final) at final concentrations in the range of 0.010 nM to 50 μM. Cells were incubated for 30 min at rt. The level of intracellular cAMP was determined using the HTRF HiRange cAMP assay reagent kit (Cisbio) according to manufacturer's instructions. Solutions of cryptate conjugated anti-cAMP and d2 fluorophore-labelled cAMP were made in a supplied lysis buffer separately. Upon completion of the reaction, the cells were lysed with equal volume of the d2-cAMP solution and anti-cAMP solution. After a 1 h rt incubation, time-resolved fluorescence intensity was measured using the Envision (Perkin-Elmer) at 400 nm excitation and dual emission at 590 nm and 665 nm. A calibration curve was constructed with an external cAMP standard at concentrations ranging from 2.7 μM to 0.1 pM by plotting the fluorescent intensity ratio from 665 nm emission to the intensity from the 590 nm emission against cAMP concentrations. The potency and activity of a compound to […] cAMP production was then determined by fitting to a 4-parametric logistic equation from a plot of cAMP level versus compound concentrations.
The examples disclosed below were tested in the human RXFP1 (hRXFP1) HEK293 cAMP assay described above and found to have agonist activity.

Compound | EC50 [nM]
CCS(=O)(=O)Nc1cncc(-c2ccc(OC)c(C(=O)Nc3c(C(=O)Nc4ccc(F)c(C(F)(F)F)c4)sc4cc(C(F)(F)F)ccc34)c2)c1 [Example 116, 3-(5-(5-(ethylsulfonamido)pyridin-3-yl)-2-methoxy-benzamido)-N-(4-fluoro-3-(trifluoromethyl)phenyl)-6-(trifluoromethyl) benzo[b] thiophene-2-carboxamide] | 650
COC(=O)C1CN(c2ccc(OC)c(C(=O)Nc3c(C(=O)Nc4ccc(F)c(C(F)(F)F)c4)sc4cc(C(F)(F)F)ccc34)c2)C1 [Example 1, Methyl 1-(3-((2-((4-fluoro-3-(trifluoromethyl)phenyl)carbamoyl)-6-(trifluoromethyl)benzo[b]thiophen-3-yl)carbamoyl)-4-methoxyphenyl)azetidine-3-carboxylate] | 631
COc1ccc(C2CC3(C2)CN(CCS(C)(=O)=O)C3)cc1C(=O)Nc1c(C(=O)Nc2ccc(F)c(C(F)(F)F)c2)sc2cc(C(F)(F)F)ccc12 [Example 205, N-(4-fluoro-3-(trifluoromethyl)phenyl)-3-(2-methoxy-5-(2-(2-(methylsulfonyl)ethyl)-2-azaspiro[3.3]heptan-6-yl)benzamido)-6-(trifluoromethyl) benzo[b] thiophene-2-carboxamide] | 1100
COc1ccc(C2CCCC(O)C2)cc1C(=O)Nc1c(C(=O)Nc2ccc(F)c(C(F)(F)F)c2)sc2cc(C(F)(F)F)ccc12 (single isomer, unassigned) [Example 32, N-(4-fluoro-3-(trifluoromethyl)phenyl)-3-(5-(3-hydroxycyclohexyl)-2-methoxybenzamido)-6-(trifluoromethyl)benzo[b]thiophene-2-carboxamide] | 718
COc1ccc(C2=NOC3CC(N)CC23)cc1C(=O)Nc1c(C(=O)Nc2ccc(F)c(C(F)(F)F)c2)sc2cc(C(F)(F)F)ccc12 (single isomer, unassigned) [Example 259, 3-(5-{5-amino-3aH,4H,5H,6H, 6aH-cyclopenta[d] [1,2]oxazol-3-yl}-2-methoxy-benzamido)-N-[4-fluoro-3-(trifluoromethyl)phenyl]-6-(trifluoromethyl)-1-benzothiophene-2-carboxamide] | 364
COc1ccc(C2CCN(C(=O)CC#N)C2)cc1C(=O)Nc1c(C(=O)Nc2ccc(F)c(C(F)(F)F)c2)sc2cc(C(F)(F)F)ccc12 (stereo not shown) [Example 146, 3-(5-(1-(2-cyanoacetyl)pyrrolidin-3-yl)-2-methoxy-benzamido)-N-(4-fluoro-3-(trifluoromethyl)phenyl)-6-(trifluoromethyl) benzo[b] thiophene-2-carboxamide] | 1100
COc1ccc(-c2cnc(C3(O)CCS(=O)(=O)C3)nc2)cc1C(=O)Nc1c(C(=O)Nc2ccc(F)c(C(F)(F)F)c2)sc2cc(C(F)(F)F)ccc12 (single isomer, unassigned) [Example 24, N-(4-fluoro-3-(trifluoromethyl)phenyl)-3-(5-(2-(3-hydroxy-1,1-dioxidotetrahydrothiophen-3-yl)pyrimidin-5-yl)-2-methoxybenzamido)-6-(trifluoromethyl)benzo[b]thiophene-2-carboxamide] | 3360
COc1ccc(C#CCO)cc1C(=O)Nc1c(C(=O)Nc2ccc(F)c(C(F)(F)F)c2)sc2cc(C3CC3)ncc12 [Example 202, 6-cyclopropyl-N-(4-fluoro-3-(trifluoromethyl)phenyl)-3-(5-(3-hydroxyprop-1-yn-1-yl)-2-methoxy-benzamido) thieno[3,2-c]pyridine-2-carboxamide] | 1010
COc1ccc(N2CCCC(C(=O)NCCO)C2)cc1C(=O)Nc1c(C(=O)Nc2ccc(F)c(C(F)(F)F)c2)sc2cc(C(F)(F)F)ccc12 (single isomer, unassigned) [Example 231, 1-(3-((2-((4-fluoro-3-(trifluoromethyl)phenyl)carbamoyl)-6-(trifluoromethyl)benzo[b]thiophen-3-yl)carbamoyl)-4-methoxyphenyl)-N-(2-hydroxyethyl) piperidine-3-carboxamide] | 1680
COc1ccc(-c2cc(CNC(=O)C3CCC3)ccc2F)cc1C(=O)Nc1c(C(=O)Nc2ccc(F)c(C(F)(F)F)c2)sc2cc(C(F)(F)F)ccc12 [Example 18, 3-(5′-(cyclobutanecarboxamidomethyl)-2′-fluoro-4-methoxy-[1,1′-biphenyl]-3-carboxamido)-N-(4-fluoro-3-(trifluoromethyl)phenyl)-6-(trifluoromethyl)benzo[b]thiophene-2-carboxamide] | 311

Stronger by EC50, values ahead:

EC50 [nM] | Compound
292 | COc1ccc(C2CC2C(=O)N2CC(O)C2)cc1C(=O)Nc1c(C(=O)Nc2ccc(F)c(C(F)(F)F)c2)sc2cc(C(F)(F)F)ccc12 (stereo not shown) [Example 162, N-(4-fluoro-3-(trifluoromethyl)phenyl)-3-(5-(2-(3-hydroxyazetidine-1-carbonyl)cyclopropyl)-2-methoxy-benzamido)-6-(trifluoromethyl) benzo[b] thiophene-2-carboxamide]
280 | COc1ccc(C2=NOC(CO)C2)cc1C(=O)Nc1c(C(=O)Nc2ccc(F)c(C(F)(F)F)c2)sc2cc(C(F)(F)F)ccc12 (single isomer, unassigned) [Example 250, N-(4-fluoro-3-(trifluoromethyl)phenyl)-3-(5-(5-(hydroxymethyl)-4,5-dihydroisoxazol-3-yl)-2-methoxy-benzamido)-6-(trifluoromethyl) benzo[b] thiophene-2-carboxamide]
245 | COC(=O)C(=O)N1CCCC(c2ccc(OC)c(C(=O)Nc3c(C(=O)Nc4ccc(F)c(C(F)(F)F)c4)sc4cc(C(F)(F)F)ccc34)c2)C1 (stereo not shown) [Example 94, methyl 2-(3-(3-((2-((4-fluoro-3-(trifluoromethyl)phenyl)carbamoyl)-6-(trifluoromethyl)benzo[b]thiophen-3-yl)carbamoyl)-4-methoxyphenyl)piperidin-1-yl)-2-oxoacetate]
216 | COc1ccc(-c2noc(C(C)(C)O)n2)cc1C(=O)Nc1c(C(=O)Nc2ccc(F)c(C(F)(F)F)c2)sc2cc(C(F)(F)F)ccc12 [Example 59, N-(4-fluoro-3-(trifluoromethyl)phenyl)-3-(5-(5-(2-hydroxypropan-2-yl)-1,2,4-oxadiazol-3-yl)-2-methoxybenzamido)-6-(trifluoromethyl) benzo[b]thiophene-2-carboxamide]
176 | COc1ccc(C2CC2C(=O)N2CC(S(C)(=O)=O)C2)cc1C(=O)Nc1c(C(=O)Nc2ccc(F)c(C(F)(F)F)c2)sc2cc(C(F)(F)F)ccc12 (single isomer, unassigned) [Example 168, N-[4-fluoro-3-(trifluoromethyl)phenyl]-3-{5-[2-(3-methane-sulfonylazetidine-1-carbonyl)cyclopropyl]-2-methoxy-benzamido}-6-(trifluoromethyl)-1-benzothiophene-2-carboxamide]
145 | COc1ccc(C(=O)N2CC(C)(O)C2)cc1C(=O)Nc1c(C(=O)Nc2ccc(F)c(C(F)(F)F)c2)sc2cc(C(F)(F)F)ccc12 [Example 180, N-(4-fluoro-3-(trifluoromethyl)phenyl)-3-(5-(3-hydroxy-3-methylazetidine-1-carbonyl)-2-methoxy-benzamido)-6-(trifluoromethyl) benzo[b] thiophene-2-carboxamide]
